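Dose response: 5 concentrations. Exposure: 48 h. Format: 96-well plates. Endpoint: linear interpolation; highest concentration if not reached. GI50 = concentration required for 50% inhibition of growth. TGI marks complete inhibition of growth.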
Assays:
Test in all cases: NCI tumour cell line growth inhibition, 48 h
OVCAR-4 ovarian = test system: OVCAR-4 ovarian
CAKI-1 renal = test system: CAKI-1 renal
HCT-15 colon = test system: HCT-15 colon
NCI/ADR-RES ovarian = test system: NCI/ADR-RES ovarian
RPMI-8226 leukemia = test system: RPMI-8226 leukemia
U251 CNS = test system: U251 CNS
DU-145 prostate = test system: DU-145 prostate
OVCAR-5 ovarian = test system: OVCAR-5 ovarian
KM12 colon = test system: KM12 colon
HCT-116 colon = test system: HCT-116 colon
SK-MEL-5 melanoma = test system: SK-MEL-5 melanoma
NCI-H226 lung = test system: NCI-H226 lung
BT-549 breast = test system: BT-549 breast
TK-10 renal = test system: TK-10 renal
EKVX NSCLC = test system: EKVX NSCLC
HS 578T breast = test system: HS 578T breast
SF-295 CNS = test system: SF-295 CNS
MOLT-4 leukemia = test system: MOLT-4 leukemia
A549 NSCLC = test system: A549 NSCLC
K-562 leukemia = test system: K-562 leukemia
UO-31 renal = test system: UO-31 renal
M14 melanoma = test system: M14 melanoma
HT29 colon = test system: HT29 colon
SK-OV-3 ovarian = test system: SK-OV-3 ovarian
MDA-MB-231 breast = test system: MDA-MB-231 breast
A498 renal = test system: A498 renal
HL-60(TB) leukemia = test system: HL-60(TB) leukemia
MCF7 breast = test system: MCF7 breast
SK-MEL-2 melanoma = test system: SK-MEL-2 melanoma
UACC-257 melanoma = test system: UACC-257 melanoma
SR leukemia = test system: SR leukemia
UACC-62 melanoma = test system: UACC-62 melanoma
SF-539 CNS = test system: SF-539 CNS
COLO 205 colon = test system: COLO 205 colon
OVCAR-3 ovarian = test system: OVCAR-3 ovarian
NCI-H460 lung = test system: NCI-H460 lung
T-47D breast = test system: T-47D breast
IGROV1 ovarian = test system: IGROV1 ovarian
HOP-92 NSCLC = test system: HOP-92 NSCLC
NCI-H522 lung = test system: NCI-H522 lung
SNB-19 CNS = test system: SNB-19 CNS
786-0 renal = test system: 786-0 renal
HCC-2998 colon = test system: HCC-2998 colon
NCI-H23 lung = test system: NCI-H23 lung
CCRF-CEM leukemia = test system: CCRF-CEM leukemia
RXF 393 renal = test system: RXF 393 renal
MDA-MB-435 = test system: MDA-MB-435
ACHN renal = test system: ACHN renal
SW-620 colon = test system: SW-620 colon
PC-3 prostate = test system: PC-3 prostate
HOP-62 NSCLC = test system: HOP-62 NSCLC
SK-MEL-28 melanoma = test system: SK-MEL-28 melanoma
LOX IMVI melanoma = test system: LOX IMVI melanoma
MALME-3M melanoma = test system: MALME-3M melanoma
SN12C renal = test system: SN12C renal
SF-268 CNS = test system: SF-268 CNS
SNB-75 CNS = test system: SNB-75 CNS

SMILES: NC(=O)c1ccc(C2C3=C(CCCC3=O)OC3=C2C(=O)c2ccccc2C3=O)cc1 (centres undefined)
- GI50 (OVCAR-4 ovarian): 228 nM
- TGI (OVCAR-4 ovarian): 950 nM
- GI50 (CAKI-1 renal): 1900 nM
- TGI (CAKI-1 renal): 3670 nM
- GI50 (HCT-15 colon): 1400 nM
- TGI (HCT-15 colon): 3370 nM
- GI50 (NCI/ADR-RES ovarian): 2940 nM
- TGI (NCI/ADR-RES ovarian): 22500 nM
- GI50 (RPMI-8226 leukemia): 521 nM
- TGI (RPMI-8226 leukemia): 2630 nM
- GI50 (U251 CNS): 358 nM
- TGI (U251 CNS): 1220 nM
- GI50 (DU-145 prostate): 465 nM
- TGI (DU-145 prostate): 1590 nM
- GI50 (OVCAR-5 ovarian): 1910 nM
- TGI (OVCAR-5 ovarian): 3920 nM
- GI50 (KM12 colon): 1340 nM
- TGI (KM12 colon): 4520 nM
- GI50 (HCT-116 colon): 260 nM
- TGI (HCT-116 colon): 760 nM
- GI50 (SK-MEL-5 melanoma): 493 nM
- TGI (SK-MEL-5 melanoma): 1730 nM
- GI50 (NCI-H226 lung): 1890 nM
- TGI (NCI-H226 lung): 3960 nM
- GI50 (BT-549 breast): 642 nM
- TGI (BT-549 breast): 2030 nM
- GI50 (TK-10 renal): 1820 nM
- TGI (TK-10 renal): 3220 nM
- GI50 (EKVX NSCLC): 687 nM
- TGI (EKVX NSCLC): 2830 nM
- GI50 (HS 578T breast): 1130 nM
- TGI (HS 578T breast): 5490 nM
- GI50 (SF-295 CNS): 1530 nM
- TGI (SF-295 CNS): 3180 nM
- GI50 (MOLT-4 leukemia): 361 nM
- TGI (MOLT-4 leukemia): 1400 nM
- GI50 (A549 NSCLC): 2280 nM
- TGI (A549 NSCLC): 4660 nM
- GI50 (K-562 leukemia): 391 nM
- TGI (K-562 leukemia): 1960 nM
- GI50 (UO-31 renal): 1540 nM
- TGI (UO-31 renal): 2910 nM
- GI50 (M14 melanoma): 609 nM
- TGI (M14 melanoma): 2030 nM
- GI50 (HT29 colon): 1770 nM
- TGI (HT29 colon): 5580 nM
- GI50 (SK-OV-3 ovarian): 2120 nM
- TGI (SK-OV-3 ovarian): 4110 nM
- GI50 (MDA-MB-231 breast): 323 nM
- TGI (MDA-MB-231 breast): 1540 nM
- GI50 (A498 renal): 1360 nM
- TGI (A498 renal): 2690 nM
- GI50 (HL-60(TB) leukemia): 239 nM
- TGI (HL-60(TB) leukemia): 538 nM
- GI50 (MCF7 breast): 233 nM
- TGI (MCF7 breast): 824 nM
- GI50 (SK-MEL-2 melanoma): 576 nM
- TGI (SK-MEL-2 melanoma): 2060 nM
- GI50 (UACC-257 melanoma): 232 nM
- TGI (UACC-257 melanoma): 1260 nM
- GI50 (SR leukemia): 771 nM
- TGI (SR leukemia): 5730 nM
- GI50 (UACC-62 melanoma): 217 nM
- TGI (UACC-62 melanoma): 520 nM
- GI50 (SF-539 CNS): 307 nM
- TGI (SF-539 CNS): 1030 nM
- GI50 (COLO 205 colon): 351 nM
- TGI (COLO 205 colon): 1410 nM
- GI50 (OVCAR-3 ovarian): 276 nM
- TGI (OVCAR-3 ovarian): 852 nM
- GI50 (NCI-H460 lung): 458 nM
- TGI (NCI-H460 lung): 2050 nM
- GI50 (T-47D breast): 272 nM
- TGI (T-47D breast): 968 nM
- GI50 (IGROV1 ovarian): 641 nM
- TGI (IGROV1 ovarian): 2120 nM
- GI50 (HOP-92 NSCLC): 855 nM
- TGI (HOP-92 NSCLC): 2910 nM
- GI50 (NCI-H522 lung): 307 nM
- TGI (NCI-H522 lung): 757 nM
- GI50 (SNB-19 CNS): 1380 nM
- TGI (SNB-19 CNS): 2870 nM
- GI50 (786-0 renal): 1040 nM
- TGI (786-0 renal): 2330 nM
- GI50 (HCC-2998 colon): 2060 nM
- TGI (HCC-2998 colon): 4290 nM
- GI50 (NCI-H23 lung): 202 nM
- TGI (NCI-H23 lung): 1140 nM
- GI50 (CCRF-CEM leukemia): 350 nM
- TGI (CCRF-CEM leukemia): 2210 nM
- GI50 (RXF 393 renal): 1430 nM
- TGI (RXF 393 renal): 2870 nM
- GI50 (MDA-MB-435): 179 nM
- TGI (MDA-MB-435): 339 nM
- GI50 (ACHN renal): 1140 nM
- TGI (ACHN renal): 2410 nM
- GI50 (SW-620 colon): 383 nM
- TGI (SW-620 colon): 1720 nM
- GI50 (PC-3 prostate): 285 nM
- TGI (PC-3 prostate): 1860 nM
- GI50 (HOP-62 NSCLC): 1350 nM
- TGI (HOP-62 NSCLC): 2720 nM
- GI50 (SK-MEL-28 melanoma): 1330 nM
- TGI (SK-MEL-28 melanoma): 2870 nM
- GI50 (LOX IMVI melanoma): 181 nM
- TGI (LOX IMVI melanoma): 1060 nM
- GI50 (MALME-3M melanoma): 332 nM
- TGI (MALME-3M melanoma): 986 nM
- GI50 (SN12C renal): 320 nM
- TGI (SN12C renal): 1170 nM
- GI50 (SF-268 CNS): 466 nM
- TGI (SF-268 CNS): 1930 nM
- GI50 (SNB-75 CNS): 277 nM
- TGI (SNB-75 CNS): 1220 nM

Reference: PubChem BioAssay (NCI)
